Converted amounts (≈) assume the structure as drawn. Read-outs that look alike come from different tables or passages of the source.
How the values were obtained:
[1] = test system: C. parapsilosis; assay: Antifungal Activity Assay (broth microtiter MIC), C. parapsilosis; format: cell-based, Candida parapsilosis; settings: Lodderomyces parapsilosis, ATCC22019, 48 h
Outline: (§1)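 Colonies from 24 h Sabouraud dextrose agar plates (35° C) are suspended in RPMI 1640+MOPS and diluted to give 2.5×10^3 CFU/mL in the wells. Plates are set up per CLSI M27-A3. Visual MIC is recorded at 48 h.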

[2] = test system: C. krusei; assay: Antifungal Activity Assay (broth microtiter MIC), C. krusei; format: cell-based, Candida krusei; settings: Pichia kudriavzevii, ATCC6258, 48 h
Outline: as §1

[3] = test system: Collectotrichum graminicola (Cg); assay: Growth inhibition assay of fungal pathogens, Cg; format: cell-based; settings: 48 h
Outline: (§2)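 Spores diluted in 17% V8 liquid media and incubated with compound at final 50, 10, 2 ppm or 2, 0.4, 0.08 ppm (2% DMSO). OD600 plus visual ratings at 24 and 48 hours, blank-subtracted; percent growth inhibition from 48 h readings relative to 2% DMSO control.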

[4] = test system: Phytophthora capsici (Pc); assay: Growth inhibition assay of fungal pathogens, Pc; format: cell-based; settings: 48 h
Outline: as §2

[5] = test system: Fusarium moniliforme (Fm); assay: Growth inhibition assay of fungal pathogens, Fm; format: cell-based; settings: for IC90: Fusarium verticillioides, 48 h, read-out: Concentration at 90% Inhibition Fm
Outline: as §2

[6] = test system: Diplodia maydis (Dm); assay: Growth inhibition assay of fungal pathogens, Dm; format: cell-based; settings: Stenocarpella maydis, 48 h
Outline: as §2

[7] = test system: Fusarium virguliforme (Fv); assay: Growth inhibition assay of fungal pathogens, Fv; format: cell-based; settings: 48 h
Outline: as §2

[8] = test system: Septoria tritici (St); assay: Growth inhibition assay of fungal pathogens, St; format: cell-based; settings: Zymoseptoria tritici, 48 h
Outline: as §2

[9] = test system: C. albicans; assay: Antifungal Activity Assay (broth microtiter MIC), C. albicans; format: cell-based, Candida albicans; settings: Candida albicans, ATCC90028, 48 h
Outline: as §1

[10] = test system: Rhizoctonia solani (Rs); assay: Growth inhibition assay of fungal pathogens, Rs; format: cell-based; settings: 48 h
[11] = molecular target: human (hACC2) (Homo sapiens, UniProt O00763); assay: In vitro ACC inhibition assay (ADP-Glo), hACC2; format: biochemical; settings: 5 nM ACC2, 20 μM ATP, 20 μM acetyl-CoA
Sequence of human (hACC2) (O00763 whole entry): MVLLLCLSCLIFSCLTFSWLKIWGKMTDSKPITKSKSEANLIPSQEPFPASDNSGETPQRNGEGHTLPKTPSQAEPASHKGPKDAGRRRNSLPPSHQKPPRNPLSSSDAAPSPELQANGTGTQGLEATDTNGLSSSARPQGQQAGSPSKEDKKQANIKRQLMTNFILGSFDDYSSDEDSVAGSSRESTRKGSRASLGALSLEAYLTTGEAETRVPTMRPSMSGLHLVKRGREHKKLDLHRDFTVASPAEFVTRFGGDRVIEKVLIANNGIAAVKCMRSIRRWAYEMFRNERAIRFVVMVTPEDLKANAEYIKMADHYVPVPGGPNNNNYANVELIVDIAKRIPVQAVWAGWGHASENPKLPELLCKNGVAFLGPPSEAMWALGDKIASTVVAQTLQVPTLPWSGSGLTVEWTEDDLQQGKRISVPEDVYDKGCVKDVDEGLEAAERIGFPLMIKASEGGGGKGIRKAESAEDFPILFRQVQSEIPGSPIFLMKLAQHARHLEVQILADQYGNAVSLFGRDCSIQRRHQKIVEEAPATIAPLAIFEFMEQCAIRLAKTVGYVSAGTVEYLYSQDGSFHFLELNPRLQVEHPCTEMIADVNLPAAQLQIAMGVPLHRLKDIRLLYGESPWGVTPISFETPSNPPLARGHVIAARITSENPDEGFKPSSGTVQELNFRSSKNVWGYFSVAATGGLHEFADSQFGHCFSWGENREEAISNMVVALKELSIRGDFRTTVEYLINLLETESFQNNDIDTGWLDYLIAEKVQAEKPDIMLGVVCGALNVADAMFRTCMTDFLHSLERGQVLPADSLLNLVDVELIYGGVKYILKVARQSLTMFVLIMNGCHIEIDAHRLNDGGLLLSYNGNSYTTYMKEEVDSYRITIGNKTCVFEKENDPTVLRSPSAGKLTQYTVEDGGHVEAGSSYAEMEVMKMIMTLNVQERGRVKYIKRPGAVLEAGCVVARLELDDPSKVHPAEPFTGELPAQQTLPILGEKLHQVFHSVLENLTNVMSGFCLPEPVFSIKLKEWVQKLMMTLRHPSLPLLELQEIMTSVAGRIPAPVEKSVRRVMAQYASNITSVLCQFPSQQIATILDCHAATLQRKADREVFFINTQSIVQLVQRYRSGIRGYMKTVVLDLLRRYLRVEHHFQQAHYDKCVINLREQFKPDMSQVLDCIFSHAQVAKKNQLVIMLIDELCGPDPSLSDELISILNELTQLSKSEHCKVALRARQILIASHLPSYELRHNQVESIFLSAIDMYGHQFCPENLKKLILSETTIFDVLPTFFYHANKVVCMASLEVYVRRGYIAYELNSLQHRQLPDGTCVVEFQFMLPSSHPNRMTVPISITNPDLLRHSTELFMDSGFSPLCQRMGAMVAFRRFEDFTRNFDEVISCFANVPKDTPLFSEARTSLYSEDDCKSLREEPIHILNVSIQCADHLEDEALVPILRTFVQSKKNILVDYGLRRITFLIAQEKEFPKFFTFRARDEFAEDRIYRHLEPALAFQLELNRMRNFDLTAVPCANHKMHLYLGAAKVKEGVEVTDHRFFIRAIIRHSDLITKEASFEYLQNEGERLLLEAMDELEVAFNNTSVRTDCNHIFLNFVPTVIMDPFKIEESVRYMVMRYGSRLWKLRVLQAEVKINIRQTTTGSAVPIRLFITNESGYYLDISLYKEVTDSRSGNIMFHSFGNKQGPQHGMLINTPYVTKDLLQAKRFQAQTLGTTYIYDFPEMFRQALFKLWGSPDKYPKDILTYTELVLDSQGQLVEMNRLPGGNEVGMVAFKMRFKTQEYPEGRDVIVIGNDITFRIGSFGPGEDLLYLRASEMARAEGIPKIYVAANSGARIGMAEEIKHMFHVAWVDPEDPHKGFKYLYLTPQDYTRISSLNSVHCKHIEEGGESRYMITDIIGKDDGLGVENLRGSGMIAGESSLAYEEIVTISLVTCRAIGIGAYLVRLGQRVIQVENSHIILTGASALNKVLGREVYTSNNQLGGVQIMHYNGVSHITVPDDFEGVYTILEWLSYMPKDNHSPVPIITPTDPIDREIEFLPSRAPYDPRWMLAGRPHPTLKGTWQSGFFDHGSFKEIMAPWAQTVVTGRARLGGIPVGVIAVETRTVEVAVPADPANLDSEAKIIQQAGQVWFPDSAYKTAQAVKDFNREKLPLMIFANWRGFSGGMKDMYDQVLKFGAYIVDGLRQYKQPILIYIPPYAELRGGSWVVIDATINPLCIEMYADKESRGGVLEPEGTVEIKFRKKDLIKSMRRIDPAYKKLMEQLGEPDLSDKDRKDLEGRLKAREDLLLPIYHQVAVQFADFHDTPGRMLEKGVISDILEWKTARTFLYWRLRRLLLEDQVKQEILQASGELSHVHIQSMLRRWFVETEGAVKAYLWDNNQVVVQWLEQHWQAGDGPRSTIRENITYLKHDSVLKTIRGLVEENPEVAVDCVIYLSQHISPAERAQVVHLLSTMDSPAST
Procedure: The detailed procedure is as follows. […] 10 μL ADP glo reagent was added. […] 20 μL kinase detection reagent was added.

[12] = read-out: MIC, C. parapsilosis ATCC 22019, Table 3b (additional results), 3 replicates, MIC recorded at 48 h
[13] = read-out: MIC, C. krusei ATCC 6258, Table 3b (additional results), 3 replicates, MIC recorded at 48 h
[14] = read-out: Concentration at 90% Inhibition Cg, Collectotrichum graminicola, growth inhibition at 48 hours vs 2% DMSO control
[15] = read-out: Concentration at 90% Inhibition Cg, Collectotrichum graminicola, growth inhibition vs 2% DMSO control at 48 hours
[16] = read-out: Concentration at 90% Inhibition Pc, Phytophthora capsici, growth inhibition at 48 hours vs 2% DMSO control
[17] = read-out: Concentration at 90% Inhibition Pc, Phytophthora capsici, growth inhibition vs 2% DMSO control at 48 hours
[18] = Fusarium moniliforme, growth inhibition at 48 hours vs 2% DMSO control
[19] = read-out: Concentration at 90% Inhibition Dm, Diplodia maydis, growth inhibition at 48 hours vs 2% DMSO control
[20] = read-out: Concentration at 90% Inhibition Dm, Diplodia maydis, growth inhibition vs 2% DMSO control at 48 hours
[21] = read-out: Concentration at 90% Inhibition Fv, Fusarium virguliforme, growth inhibition at 48 hours vs 2% DMSO control
[22] = read-out: Concentration at 90% Inhibition Fv, Fusarium virguliforme, growth inhibition vs 2% DMSO control at 48 hours
[23] = read-out: Concentration at 90% Inhibition St, Septoria tritici, growth inhibition at 48 hours vs 2% DMSO control
[24] = read-out: Concentration at 90% Inhibition St, Septoria tritici, growth inhibition vs 2% DMSO control at 48 hours
[25] = read-out: MIC, C. albicans ATCC 90028, Table 3b (additional results), 3 replicates, MIC recorded at 48 h
[26] = read-out: Concentration at 90% Inhibition Rs, Rhizoctonia solani, mycelial plugs, growth inhibition at 48 hours vs 2% DMSO control
[27] = read-out: Concentration at 90% Inhibition Rs, Rhizoctonia solani, mycelial plugs, growth inhibition vs 2% DMSO control at 48 hours

COCCCO[C@@H](Cn1c(=O)n(C(C)(C)C(=O)NC(C)C)c(=O)c2c(C)c(-n3nccn3)sc21)c1cc(F)ccc1OC [Compound I-69, (R)-2-(1-(2-(5-fluoro-2-methoxyphenyl)-2-(3-methoxy-propoxy)ethyl)-5-methyl-2,4-dioxo-6-(2H-1,2,3-triazol-2-yl)-1,4-dihydrothieno[2,3-d]pyrimidin-3(2H)-yl)-N-isopropyl-2-methylpropanamide] gave an MIC [1, 12] of 0.25 to 1 µg/mL (≈ 0.405 to 1.62 µM), an MIC [2, 13] of 0.25 to 1 µg/mL (≈ 0.405 to 1.62 µM) and an IC90 [3, 14] of 0.4 µg/mL (≈ 0.649 µM). For the same compound, the IC90 [3, 15] was 0.4 µg/mL (≈ 0.649 µM), the IC90 [4, 16] was > 50 µg/mL and the IC90 [4, 17] was > 50 µg/mL. The “Concentration at 90% Inhibition Fm” value [5, 18] was “AA (compound concentration of 0.08 ppm at 90% inhibition of fungal pathogens)”, the IC90 [5] was 0.08 µg/mL (≈ 0.13 µM) and the IC90 [6, 19] was 0.08 µg/mL (≈ 0.13 µM). For the same compound, the IC90 [6, 20] was 0.08 µg/mL (≈ 0.13 µM), the IC90 [7, 21] was 0.08 µg/mL (≈ 0.13 µM) and the IC90 [7, 22] was 0.08 µg/mL (≈ 0.13 µM). For the same compound, the IC90 [8, 23] was 10 µg/mL (≈ 16.2 µM), the IC90 [8, 24] was > 50 µg/mL and the MIC [9, 25] was 1.01 to 2 µg/mL (≈ 1.64 to 3.24 µM). The IC90 [10, 26] was 0.4 µg/mL (≈ 0.649 µM), the IC90 [10, 27] was 0.4 µg/mL (≈ 0.649 µM) and the IC50 ([11]; Table 2a) was 5 to 10 nM. It also gave an IC50 ([11]; Table 2b, additional results) of 5 to 10 nM.

Compound C=CCNC(=O)C(C)(C)n1c(=O)c2c(C)c(-n3nccn3)sc2n(C[C@H](OC2CCOCC2)c2cc(F)ccc2OC)c1=O [Compound I-70, (R)—N-allyl-2-(1-(2-(5-fluoro-2-methoxyphenyl)-2-((tetrahydro-2H-pyran-4-yl)oxy)ethyl)-5-methyl-2,4-dioxo-6-(2H-1,2,3-triazol-2-yl)-1,4-dihydrothieno[2,3-d]pyrimidin-3(2H)-yl)-2-methylpropanamide] has an MIC ([1]; read-out: MIC, C. parapsilosis ATCC 22019, Table 3a, 3 replicates, MIC recorded at 48 h) of 0.25 to 1 µg/mL (≈ 0.399 to 1.6 µM), an MIC [1, 12] of 1.01 to 2 µg/mL (≈ 1.61 to 3.19 µM) and an MIC ([2]; read-out: MIC, C. krusei ATCC 6258, Table 3a, 3 replicates, MIC recorded at 48 h) of 0.25 to 1 µg/mL (≈ 0.399 to 1.6 µM). It also gave an MIC [2, 13] of 0.25 to 1 µg/mL (≈ 0.399 to 1.6 µM), an IC90 [3, 14] of 2 µg/mL (≈ 3.19 µM) and an IC90 [3, 15] of 2 µg/mL (≈ 3.19 µM). For the same compound, the IC90 [4, 16] was > 50 µg/mL, the IC90 [4, 17] was > 50 µg/mL and the “Concentration at 90% Inhibition Fm” value [5, 18] was “AA (compound concentration of 0.08 ppm at 90% inhibition of fungal pathogens)”. For the same compound, the IC90 [5] was 0.08 µg/mL (≈ 0.128 µM), the IC90 [6, 19] was 2 µg/mL (≈ 3.19 µM) and the IC90 [6, 20] was 2 µg/mL (≈ 3.19 µM). The IC90 [7, 21] was 0.4 µg/mL (≈ 0.638 µM), the IC90 [7, 22] was 0.4 µg/mL (≈ 0.638 µM) and the IC90 [8, 23] was > 50 µg/mL. The IC90 [8, 24] was > 50 µg/mL, the MIC ([9]; read-out: MIC, C. albicans ATCC 90028, Table 3a, 3 replicates, MIC recorded at 48 h) was 0.25 to 1 µg/mL (≈ 0.399 to 1.6 µM) and the MIC [9, 25] was 0.25 to 1 µg/mL (≈ 0.399 to 1.6 µM). For the same compound, the IC90 [10, 26] was 0.4 µg/mL (≈ 0.638 µM), the IC90 [10, 27] was 0.4 µg/mL (≈ 0.638 µM) and the IC50 ([11]; Table 2a) was 1 to 5 nM. It also gave an IC50 ([11]; Table 2b, additional results) of 1 to 5 nM.

C=CCN(C)C(=O)C(C)(C)n1c(=O)c2c(C)c(-n3nccn3)sc2n(C[C@H](OC2CCOCC2)c2cc(F)ccc2OC)c1=O [Compound I-71, (R)—N-allyl-2-(1-(2-(5-fluoro-2-methoxyphenyl)-2-((tetrahydro-2H-pyran-4-yl)oxy)ethyl)-5-methyl-2,4-dioxo-6-(2H-1,2,3-triazol-2-yl)-1,4-dihydrothieno[2,3-d]pyrimidin-3(2H)-yl)-N,2-dimethylpropanamide] was tested, and the MIC ([1]; Table 3a, ATCC 22019, 3 replicates, MIC recorded at 48 h, read-out: MIC, C. parapsilosis ATCC 22019) was 0.25 to 1 µg/mL (≈ 0.39 to 1.56 µM), the MIC ([1]; Table 3b (additional results), ATCC 22019, 3 replicates, MIC recorded at 48 h, read-out: MIC, C. parapsilosis ATCC 22019) was 1.01 to 2 µg/mL (≈ 1.58 to 3.12 µM) and the MIC ([2]; Table 3a, ATCC 6258, 3 replicates, MIC recorded at 48 h, read-out: MIC, C. krusei ATCC 6258) was 0.25 to 1 µg/mL (≈ 0.39 to 1.56 µM). It also gave an MIC ([2]; Table 3b (additional results), ATCC 6258, 3 replicates, MIC recorded at 48 h, read-out: MIC, C. krusei ATCC 6258) of 0.25 to 1 µg/mL (≈ 0.39 to 1.56 µM), an IC90 ([3]; Collectotrichum graminicola, growth inhibition at 48 hours vs 2% DMSO control, read-out: Concentration at 90% Inhibition Cg) of 0.08 µg/mL (≈ 0.125 µM) and an IC90 ([3]; Collectotrichum graminicola, growth inhibition vs 2% DMSO control at 48 hours, read-out: Concentration at 90% Inhibition Cg) of 0.08 µg/mL (≈ 0.125 µM). The IC90 ([4]; growth inhibition at 48 hours vs 2% DMSO control, read-out: Concentration at 90% Inhibition Pc) was > 50 µg/mL, the IC90 ([4]; growth inhibition vs 2% DMSO control at 48 hours, read-out: Concentration at 90% Inhibition Pc) was > 50 µg/mL and the IC90 [5, 18] was 0.08 µg/mL (≈ 0.125 µM). It also gave an IC90 ([5]; Fusarium moniliforme, growth inhibition vs 2% DMSO control at 48 hours) of 0.08 µg/mL (≈ 0.125 µM), an IC90 ([6]; Diplodia maydis, growth inhibition at 48 hours vs 2% DMSO control, read-out: Concentration at 90% Inhibition Dm) of 0.4 µg/mL (≈ 0.624 µM) and an IC90 ([6]; Diplodia maydis, growth inhibition vs 2% DMSO control at 48 hours, read-out: Concentration at 90% Inhibition Dm) of 0.4 µg/mL (≈ 0.624 µM). For the same compound, the IC90 ([7]; growth inhibition at 48 hours vs 2% DMSO control, read-out: Concentration at 90% Inhibition Fv) was 2 µg/mL (≈ 3.12 µM), the IC90 ([7]; growth inhibition vs 2% DMSO control at 48 hours, read-out: Concentration at 90% Inhibition Fv) was 2 µg/mL (≈ 3.12 µM) and the IC90 ([8]; Septoria tritici, growth inhibition at 48 hours vs 2% DMSO control, read-out: Concentration at 90% Inhibition St) was > 50 µg/mL. For the same compound, the IC90 ([8]; Septoria tritici, growth inhibition vs 2% DMSO control at 48 hours, read-out: Concentration at 90% Inhibition St) was > 50 µg/mL, the MIC ([9]; Table 3a, ATCC 90028, 3 replicates, MIC recorded at 48 h, read-out: MIC, C. albicans ATCC 90028) was 0.25 to 1 µg/mL (≈ 0.39 to 1.56 µM) and the MIC ([9]; Table 3b (additional results), ATCC 90028, 3 replicates, MIC recorded at 48 h, read-out: MIC, C. albicans ATCC 90028) was 0.25 to 1 µg/mL (≈ 0.39 to 1.56 µM). The IC90 ([10]; mycelial plugs, growth inhibition at 48 hours vs 2% DMSO control, read-out: Concentration at 90% Inhibition Rs) was 0.08 µg/mL (≈ 0.125 µM), the IC90 ([10]; mycelial plugs, growth inhibition vs 2% DMSO control at 48 hours, read-out: Concentration at 90% Inhibition Rs) was 0.08 µg/mL (≈ 0.125 µM) and the IC50 ([11]; Table 2a) was 1 to 5 nM. The IC50 ([11]; Table 2b, additional results) was 1 to 5 nM.

— patent publication US10800791B2, “Triazole ACC inhibitors and uses thereof” (Gilead Apollo, LLC, priority 2015, dated 2020)
